# Tests used:
# Assay type in all cases: in vivo
# [1] = system: Surinam grass (Brachiaria decumbens); test: Test B postemergence; details: 13 to 15 days
# Procedure, shortened: (§1)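 Preemergence: seeds planted and treated with test chemicals in non-phytotoxic solvent with surfactant; postemergence on plants 2–18 cm (1- to 4-leaf stage). Kept in greenhouse 13–15 days, then visually rated against controls on a 0 (no effect) to 100 (complete control) scale.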
# [2] = system: wild oat (Avena fatua); test: Test B postemergence; details: 13 to 15 days
# Procedure, shortened: as §1
# [3] = system: wheat (Triticum aestivum); test: Test B postemergence; details: 13 to 15 days
# Procedure, shortened: as §1
# [4] = system: barnyardgrass (Echinochloa crus-galli); test: Test B postemergence; details: 13 to 15 days
# Procedure, shortened: as §1
# [5] = system: morning glory (Ipomoea hederacea); test: Test B postemergence; details: 13 to 15 days
# Procedure, shortened: as §1
# [6] = system: giant foxtail (Setaria faberii); test: Test B postemergence; details: 13 to 15 days
# Procedure, shortened: as §1
# [7] = system: corn (Zea mays); test: Test B postemergence; details: 13 to 15 days
# Procedure, shortened: as §1
# [8] = system: pigweed (Amaranthus retroflexus); test: Test B postemergence; details: 13 to 15 days
# Procedure, shortened: as §1
# [9] = system: velvetleaf (Abutilon theophrasti); test: Test B postemergence; details: 13 to 15 days
# Procedure, shortened: as §1
# [10] = system: crabgrass (Digitaria sanguinalis); test: Test B postemergence; details: 13 to 15 days
# Procedure, shortened: as §1
# [11] = system: cocklebur (Xanthium strumarium); test: Test B postemergence; details: 13 to 15 days
# Procedure, shortened: as §1
# [12] = system: yellow nutsedge (Cyperus esculentus); test: Test C preemergence; details: for Plant response rating, Nutsedge: scale 0 to 100, 0 no effect, 100 complete control; for Plant response rating (0 to 100), Nutsedge: Rate 500 g/ha, visual evaluation after 12 to 14 days
# Procedure, shortened: (§2)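 Compounds in non-phytotoxic solvent with surfactant applied preemergence to planted seeds and postemergence to plants at 1- to 4-leaf stage (2–18 cm). Kept in greenhouse 12–14 days, then visually rated against controls on a 0 (no effect) to 100 (complete control) scale.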
# [13] = system: morningglory (Ipomoea hederacea); test: Test C preemergence; details: for Plant response rating, Morningglory: scale 0 to 100, 0 no effect, 100 complete control; for Plant response rating (0 to 100), Morningglory: Rate 500 g/ha, visual evaluation after 12 to 14 days
# Procedure, shortened: as §2
# [14] = system: Sunflower; test: Test C preemergence; details: Rate 125 g/ha; scale 0 to 100, 0 no effect, 100 complete control
# [15] = system: corn (Zea mays); test: Test C preemergence; details: for Plant response rating, Corn: scale 0 to 100, 0 no effect, 100 complete control; for Plant response rating (0 to 100), Corn: preemergence, visual evaluation after 12 to 14 days
# Procedure, shortened: as §2
# [16] = system: goosegrass (Eleusine indica); test: Test C preemergence; details: for Plant response rating, Goosegrass: scale 0 to 100, 0 no effect, 100 complete control; for Plant response rating (0 to 100), Goosegrass: preemergence, visual evaluation after 12 to 14 days
# Procedure, shortened: as §2
# [17] = system: velvetleaf (Abutilon theophrasti); test: Test C preemergence; details: for Plant response rating, Velvetleaf: scale 0 to 100, 0 no effect, 100 complete control; for Plant response rating (0 to 100), Velvetleaf: Rate 500 g/ha, visual evaluation after 12 to 14 days
# Procedure, shortened: as §2
# [18] = system: Nightshade; test: Test C preemergence; details: scale 0 to 100, 0 no effect, 100 complete control
# [19] = system: johnsongrass (Sorghum halepense); test: Test C preemergence; details: for Plant response rating, Johnsongrass: scale 0 to 100, 0 no effect, 100 complete control; for Plant response rating (0 to 100), Johnsongrass: preemergence, visual evaluation after 12 to 14 days
# Procedure, shortened: as §2
# [20] = system: lambsquarters (Chenopodium album); test: Test C preemergence; details: for Plant response rating, Lambsquarters: scale 0 to 100, 0 no effect, 100 complete control; for Plant response rating (0 to 100), Lambsquarters: Rate 500 g/ha, visual evaluation after 12 to 14 days
# Procedure, shortened: as §2
# [21] = system: common ragweed (Ambrosia elatior); test: Test C preemergence; details: for Plant response rating, Ragweed, Common: scale 0 to 100, 0 no effect, 100 complete control; for Plant response rating (0 to 100), Ragweed, Common: Rate 500 g/ha, visual evaluation after 12 to 14 days
# Procedure, shortened: as §2
# [22] = system: Sunflower; test: Test C preemergence; details: Rate 500 g/ha, visual evaluation after 12 to 14 days
# [23] = Rate 125 g/ha, scale 0 (no effect) to 100 (complete control)
# [24] = Rate 500 g/ha, scale 0 to 100, 0 is no effect, 100 is complete control
compound,measurement,setting,value
CC(C)(C)c1ccn(C2CCN(c3ccc(F)c(Br)c3)C2=O)n1 (stereo not drawn) [Compound 75],"Plant response rating, Surinam grass",[1]; [23],0
same,"Plant response rating, Surinam grass",[1]; [24],0
same,"Plant response rating, Wild Oat",[2]; [23],0
same,"Plant response rating, Wild Oat",[2]; [24],0
same,"Plant response rating, Wheat",[3]; [23],0
same,"Plant response rating, Wheat",[3]; [24],0
same,"Plant response rating, Barnyardgrass",[4]; [23],0
same,"Plant response rating, Barnyardgrass",[4]; [24],0
same,"Plant response rating, Morningglory",[5]; [23],20
same,"Plant response rating, Morningglory",[5]; [24],60
same,"Plant response rating, Foxtail, Giant",[6]; [23],0
same,"Plant response rating, Foxtail, Giant",[6]; [24],0
same,"Plant response rating, Corn",[7]; [23],0
same,"Plant response rating, Corn",[7]; [24],0
same,"Plant response rating, Pigweed",[8]; [23],50
same,"Plant response rating, Pigweed",[8]; [24],90
same,"Plant response rating, Velvetleaf",[9]; [23],0
same,"Plant response rating, Velvetleaf",[9]; [24],50
same,"Plant response rating, Crabgrass",[10]; [23],0
same,"Plant response rating, Crabgrass",[10]; [24],0
same,"Plant response rating, Cocklebur",[11]; [23],0
same,"Plant response rating, Cocklebur",[11]; [24],0
same,"Plant response rating, Nutsedge",[12]; Rate 62 g/ha,0
same,"Plant response rating, Nutsedge",[12]; Rate 125 g/ha,0
same,"Plant response rating (0 to 100), Nutsedge",[12]; preemergence,50
same,"Plant response rating, Nutsedge","[12]; preemergence, Rate 250 g/ha",50
same,"Plant response rating, Morningglory",[13]; Rate 62 g/ha,0
same,"Plant response rating, Morningglory",[13]; Rate 125 g/ha,0
same,"Plant response rating (0 to 100), Morningglory",[13]; preemergence,0
same,"Plant response rating, Morningglory","[13]; preemergence, Rate 250 g/ha",0
same,"Plant response rating, Sunflower",[14],0
same,"Plant response rating, Corn",[15]; Rate 62 g/ha,0
same,"Plant response rating, Corn",[15]; Rate 125 g/ha,0
same,"Plant response rating (0 to 100), Corn",[15]; Rate 250 g/ha,0
same,"Plant response rating (0 to 100), Corn",[15]; Rate 500 g/ha,0
same,"Plant response rating, Goosegrass",[16]; Rate 62 g/ha,90
same,"Plant response rating, Goosegrass",[16]; Rate 125 g/ha,100
same,"Plant response rating (0 to 100), Goosegrass",[16]; Rate 250 g/ha,100
same,"Plant response rating (0 to 100), Goosegrass",[16]; Rate 500 g/ha,100
same,"Plant response rating, Velvetleaf",[17]; Rate 125 g/ha,0
same,"Plant response rating (0 to 100), Velvetleaf",[17]; preemergence,0
same,"Plant response rating, Velvetleaf","[17]; preemergence, Rate 250 g/ha",0
same,"Plant response rating, Nightshade",[18]; Rate 62 g/ha,0
same,"Plant response rating, Nightshade",[18]; Rate 125 g/ha,0
same,"Plant response rating, Nightshade",[18]; Rate 250 g/ha,0
same,"Plant response rating, Johnsongrass",[19]; Rate 62 g/ha,0
same,"Plant response rating, Johnsongrass",[19]; Rate 125 g/ha,0
same,"Plant response rating (0 to 100), Johnsongrass",[19]; Rate 250 g/ha,30
same,"Plant response rating (0 to 100), Johnsongrass",[19]; Rate 500 g/ha,30
same,"Plant response rating, Lambsquarters",[20]; Rate 62 g/ha,100
same,"Plant response rating, Lambsquarters",[20]; Rate 125 g/ha,100
same,"Plant response rating (0 to 100), Lambsquarters",[20]; preemergence,100
same,"Plant response rating, Lambsquarters","[20]; preemergence, Rate 250 g/ha",100
same,"Plant response rating, Ragweed, Common",[21]; Rate 125 g/ha,0
same,"Plant response rating (0 to 100), Ragweed, Common",[21]; preemergence,60
same,"Plant response rating, Ragweed, Common","[21]; preemergence, Rate 250 g/ha",0
same,"Plant response rating (0 to 100), Sunflower",[22],50
CC(C)(C)c1ccn(C2CCN(c3cccc(OC(F)F)c3)C2=O)n1 (stereo not drawn) [Compound 76],"Plant response rating, Surinam grass",[1]; [23],0
same,"Plant response rating, Surinam grass",[1]; [24],10
same,"Plant response rating, Wild Oat",[2]; [23],0
same,"Plant response rating, Wild Oat",[2]; [24],0
same,"Plant response rating, Wheat",[3]; [23],0
same,"Plant response rating, Wheat",[3]; [24],0
same,"Plant response rating, Barnyardgrass",[4]; [23],0
same,"Plant response rating, Barnyardgrass",[4]; [24],90
same,"Plant response rating, Morningglory",[5]; [23],0
same,"Plant response rating, Morningglory",[5]; [24],20
same,"Plant response rating, Foxtail, Giant",[6]; [23],0
same,"Plant response rating, Foxtail, Giant",[6]; [24],30
same,"Plant response rating, Corn",[7]; [23],0
same,"Plant response rating, Corn",[7]; [24],0
same,"Plant response rating, Pigweed",[8]; [23],30
same,"Plant response rating, Pigweed",[8]; [24],80
same,"Plant response rating, Velvetleaf",[9]; [23],0
same,"Plant response rating, Velvetleaf",[9]; [24],0
same,"Plant response rating, Crabgrass",[10]; [23],0
same,"Plant response rating, Crabgrass",[10]; [24],40
same,"Plant response rating, Cocklebur",[11]; [23],0
same,"Plant response rating, Cocklebur",[11]; [24],20
same,"Plant response rating, Nutsedge",[12]; Rate 62 g/ha,0
same,"Plant response rating, Nutsedge",[12]; Rate 125 g/ha,0
same,"Plant response rating (0 to 100), Nutsedge",[12]; preemergence,20
same,"Plant response rating, Nutsedge","[12]; preemergence, Rate 250 g/ha",20
same,"Plant response rating, Morningglory",[13]; Rate 62 g/ha,10
same,"Plant response rating, Morningglory",[13]; Rate 125 g/ha,30
same,"Plant response rating (0 to 100), Morningglory",[13]; preemergence,30
same,"Plant response rating, Morningglory","[13]; preemergence, Rate 250 g/ha",30
same,"Plant response rating, Sunflower",[14],20
same,"Plant response rating, Corn",[15]; Rate 62 g/ha,20
same,"Plant response rating, Corn",[15]; Rate 125 g/ha,20
same,"Plant response rating (0 to 100), Corn",[15]; Rate 250 g/ha,20
same,"Plant response rating (0 to 100), Corn",[15]; Rate 500 g/ha,80
same,"Plant response rating, Goosegrass",[16]; Rate 62 g/ha,100
same,"Plant response rating, Goosegrass",[16]; Rate 125 g/ha,100
same,"Plant response rating (0 to 100), Goosegrass",[16]; Rate 250 g/ha,100
same,"Plant response rating (0 to 100), Goosegrass",[16]; Rate 500 g/ha,100
same,"Plant response rating, Velvetleaf",[17]; Rate 125 g/ha,20
same,"Plant response rating (0 to 100), Velvetleaf",[17]; preemergence,50
same,"Plant response rating, Velvetleaf","[17]; preemergence, Rate 250 g/ha",20
same,"Plant response rating, Nightshade",[18]; Rate 62 g/ha,0
same,"Plant response rating, Nightshade",[18]; Rate 125 g/ha,30
same,"Plant response rating, Nightshade",[18]; Rate 250 g/ha,40
same,"Plant response rating, Johnsongrass",[19]; Rate 62 g/ha,20
same,"Plant response rating, Johnsongrass",[19]; Rate 125 g/ha,30
same,"Plant response rating (0 to 100), Johnsongrass",[19]; Rate 250 g/ha,40
same,"Plant response rating (0 to 100), Johnsongrass",[19]; Rate 500 g/ha,100
same,"Plant response rating, Lambsquarters",[20]; Rate 62 g/ha,100
same,"Plant response rating, Lambsquarters",[20]; Rate 125 g/ha,100
same,"Plant response rating (0 to 100), Lambsquarters",[20]; preemergence,100
same,"Plant response rating, Lambsquarters","[20]; preemergence, Rate 250 g/ha",100
same,"Plant response rating, Ragweed, Common",[21]; Rate 125 g/ha,0
same,"Plant response rating (0 to 100), Ragweed, Common",[21]; preemergence,0
same,"Plant response rating, Ragweed, Common","[21]; preemergence, Rate 250 g/ha",0
same,"Plant response rating (0 to 100), Sunflower",[22],30
